Here are results for ten molecules from ChEMBL document CHEMBL1641597, “An efficient one-pot synthesis of benzothiazolo-4β-anilino-podophyllotoxin congeners: DNA topoisomerase-II inhibition and anticancer activity” (Bioorg Med Chem Lett, 2011).

The IC50 is the point on the concentration scale where inhibition reaches its midpoint.

For one test, the system named is HT-1080. Kind of test: Cytotoxicity against human HT1080 assessed as inhibition of cell growth. Format: functional, cell-based.
A short description of test [1]: Cytotoxicity against human DWD assessed as inhibition of cell growth. Format: functional.
Test [2] has as its target DNA topoisomerase 2-alpha (Rattus norvegicus) (UniProt P41516). Kind of test: Inhibition of rat brain topoisomerase 2 assessed as relaxation of supercoiled pBR322 DNA.
The test system of a further test is HOP-62. Kind of test: Cytotoxicity against human HOP62 assessed as inhibition of cell growth. The format is functional, cell-based.
For another test, the system named is COLO 205. Kind of test: Cytotoxicity against human COLO205 assessed as inhibition of cell growth. The format is functional, cell-based.

Counter-ions that a name gives are not always drawn. Calls of active or inactive are those of the source. No cut-off for these calls is given here.

Sequence of DNA topoisomerase 2-alpha (Rattus norvegicus) (P41516 whole entry): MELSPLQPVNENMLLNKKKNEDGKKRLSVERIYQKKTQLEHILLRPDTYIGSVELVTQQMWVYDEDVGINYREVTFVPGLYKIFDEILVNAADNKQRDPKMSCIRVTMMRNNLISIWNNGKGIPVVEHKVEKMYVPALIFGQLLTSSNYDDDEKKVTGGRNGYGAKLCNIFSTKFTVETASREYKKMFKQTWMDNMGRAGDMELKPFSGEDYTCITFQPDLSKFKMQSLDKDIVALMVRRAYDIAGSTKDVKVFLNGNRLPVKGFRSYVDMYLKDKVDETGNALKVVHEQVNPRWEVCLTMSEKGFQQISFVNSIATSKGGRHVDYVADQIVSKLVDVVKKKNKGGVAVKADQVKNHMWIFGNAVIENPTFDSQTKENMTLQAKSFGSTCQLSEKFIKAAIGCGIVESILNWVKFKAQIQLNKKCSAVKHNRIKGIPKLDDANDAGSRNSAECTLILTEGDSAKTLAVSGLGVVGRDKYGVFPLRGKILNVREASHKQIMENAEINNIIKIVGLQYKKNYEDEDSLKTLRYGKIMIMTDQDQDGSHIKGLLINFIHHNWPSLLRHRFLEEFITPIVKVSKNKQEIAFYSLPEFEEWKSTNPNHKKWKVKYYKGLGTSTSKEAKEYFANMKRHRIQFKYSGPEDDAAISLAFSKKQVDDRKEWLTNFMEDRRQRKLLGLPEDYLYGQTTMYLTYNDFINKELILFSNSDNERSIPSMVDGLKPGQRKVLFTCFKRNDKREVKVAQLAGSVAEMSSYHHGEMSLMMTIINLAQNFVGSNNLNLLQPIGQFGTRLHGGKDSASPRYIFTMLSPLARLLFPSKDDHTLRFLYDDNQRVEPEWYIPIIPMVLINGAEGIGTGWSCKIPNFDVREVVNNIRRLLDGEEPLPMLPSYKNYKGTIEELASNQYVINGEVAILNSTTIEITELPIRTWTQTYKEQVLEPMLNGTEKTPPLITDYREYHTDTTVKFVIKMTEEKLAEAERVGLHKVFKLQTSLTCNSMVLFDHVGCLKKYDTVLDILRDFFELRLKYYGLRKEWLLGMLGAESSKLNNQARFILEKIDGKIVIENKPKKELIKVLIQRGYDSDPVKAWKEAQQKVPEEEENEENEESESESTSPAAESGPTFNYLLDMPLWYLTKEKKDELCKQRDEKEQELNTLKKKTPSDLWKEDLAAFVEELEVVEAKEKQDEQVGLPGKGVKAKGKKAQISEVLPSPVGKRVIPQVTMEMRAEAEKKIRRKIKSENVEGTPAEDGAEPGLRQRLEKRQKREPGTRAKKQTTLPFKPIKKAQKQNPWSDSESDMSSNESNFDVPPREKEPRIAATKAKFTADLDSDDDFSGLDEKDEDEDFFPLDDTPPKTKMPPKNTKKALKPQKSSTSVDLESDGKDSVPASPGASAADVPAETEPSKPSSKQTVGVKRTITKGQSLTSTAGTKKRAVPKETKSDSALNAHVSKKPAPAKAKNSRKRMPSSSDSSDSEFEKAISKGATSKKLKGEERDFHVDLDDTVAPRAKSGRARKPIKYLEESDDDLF

`COc1cc([C@@H]2c3cc4c(cc3[C@@H](Nc3ccc(-c5nc6ccccc6s5)cc3)[C@H]3COC(=O)[C@H]23)OCO4)cc(OC)c1O`: the IC50 with HT-1080 is 9.7 µM; in test [1], 2.3 µM; in the test with HOP-62, 30.1 µM; with COLO 205 it was 2.7 µM. Moreover, the inhibition entry in test [2] is “Active”.

For `COc1cc([C@@H]2c3cc4c(cc3[C@@H](Nc3ccc(-c5nc6ccccc6s5)cc3)[C@H]3COC(=O)[C@H]23)OCO4)cc(OC)c1OC`, the IC50 is 8.2 µM in the test with HT-1080, 22 µM in test [1], greater than 80 µM in the test with HOP-62 and 8.1 µM with COLO 205. For the same molecule, the inhibition result in test [2] is “Active”.

For `COc1cc([C@@H]2c3cc4c(cc3[C@@H](Nc3ccc(-c5nc6c(Cl)cccc6s5)cc3)[C@H]3COC(=O)[C@H]23)OCO4)cc(OC)c1OC`, the IC50 worked out at 9.1 µM in the test on HT-1080, 7.3 µM in test [1], 60.3 µM in the test on HOP-62 and 7.1 µM in the test with COLO 205.

Turning to `COc1cc([C@@H]2c3cc4c(cc3[C@@H](Nc3ccc(-c5nc6ccccc6s5)c(Cl)c3)[C@H]3COC(=O)[C@H]23)OCO4)cc(OC)c1O`, the IC50 was greater than 80 µM in the test on HT-1080, 6.5 µM in test [1], 8.6 µM in the test on HOP-62 and 8.3 µM in the test with COLO 205.

Regarding `COc1cc([C@@H]2c3cc4c(cc3[C@@H](Nc3ccc(-c5nc6ccccc6s5)cc3Br)[C@H]3COC(=O)[C@H]23)OCO4)cc(OC)c1O`, in test [2], the inhibition entry is “Active”.

Take `COc1cccc2c1C(=O)c1c(O)c3c(c(O)c1C2=O)C[C@@](O)(C(=O)CO)C[C@@H]3O[C@H]1C[C@H](N)[C@H](O)[C@H](C)O1` [DOXORUBICIN HYDROCHLORIDE]: the IC50 in the test on HT-1080 turned out to be 4.7 µM; in test [1] it was 2.8 µM; in the test with HOP-62, 5.4 µM; with COLO 205 it was 5.1 µM.

Regarding `COc1cc([C@@H]2c3cc4c(cc3[C@@H](Nc3ccc(-c5nc6c(Cl)cccc6s5)cc3)[C@H]3COC(=O)[C@H]23)OCO4)cc(OC)c1O`, the IC50 with HT-1080 is greater than 80 µM; in test [1], 9.1 µM; with HOP-62, 10.1 µM; in the test on COLO 205, 8.3 µM.

As for `COc1cc([C@@H]2c3cc4c(cc3[C@H](O)[C@H]3COC(=O)[C@H]23)OCO4)cc(OC)c1OC` [PODOFILOX], the IC50 with HT-1080 was 8.1 µM; in test [1] it was 6.1 µM; with HOP-62, 13.1 µM; in the test on COLO 205 it was 5 µM.

For `COc1ccc2nc(-c3ccc(N[C@@H]4c5cc6c(cc5[C@@H](c5cc(OC)c(OC)c(OC)c5)[C@H]5C(=O)OC[C@@H]54)OCO6)cc3)sc2c1`, the IC50 with HT-1080 came to 9.5 µM; in test [1], 5.2 µM; with HOP-62, 15.2 µM; with COLO 205, 7 µM.

For the molecule `COc1ccc2nc(-c3ccc(N[C@@H]4c5cc6c(cc5[C@@H](c5cc(OC)c(O)c(OC)c5)[C@H]5C(=O)OC[C@@H]54)OCO6)cc3)sc2c1`, the inhibition entry in test [2] is “Active”.
